# What was measured:
# Format in all cases: in vivo, human
# NSCLC = assay: Subgroup of NSCLC patients treated with docetaxel, overall survival by VeriStrat group; conditions: between VeriStrat Good and VeriStrat Poor patients, FIG. 6
# Description: FIG. 6 is a Kaplan-Meier plot of overall survival for a subgroup analysis of one of the cohorts studied in Taguchi et al., Mass spectrometry to classify non-small-cell lung cancer patients for clinical outcome after treatment with epidermal growth factor receptor tyrosine kinase inhibitors: a multicohort cross-institutional study.
# Given our previous experience with VeriStrat separation in NSCLC and other cancers, we believe that the difference shown in FIGS. 1-4 and 7A-7B lies principally in the Poor group—i.e., that they probably benefit very little from the combination of gemcitabine+cisplatin (or possibly other combinations of chemotherapy based on a platinum agent), but can get outcomes similar to Good patients if they receive gemcitabine alone, or another non-platinum agent, for example, docetaxel. Our results in a subgroup of NSCLC patients treated with docetaxel show no difference in overall survival between VeriStrat Good and VeriStrat Poor patients (hazard ratio 1.03, p=0.95, see FIG. 6 for a Kaplan-Meier plot)
# [1] = tested on: advanced non-small cell lung cancer (NSCLC); assay: LCCC0512 study, gemcitabine arm, outcome by VeriStrat group; conditions: for median PFS: NSCLC patients treated with gemcitabine alone
# Procedure: The LCCC0512 study was a randomized phase II trial of first-line treatment with gemcitabine, erlotinib or the combination in elderly (over 70 years old) patients with advanced non-small cell lung cancer (NSCLC). Patients had stage IIIB or IV NSCLC and ECOG performance status of 0-2. Patients were randomized to receive either a maximum of 4 cycles of gemcitabine (1200 mg/m^2 days 1,8 every 21 days), 150 mg erlotinib daily, or a maximum of 4 cycles of gemcitabine (1000 mg/m^2 days 1,8 every 21 days) with concurrent 100 mg erlotinib daily. Primary endpoint was progression-free survival at 6 months. Patients randomized to receive gemcitabine monotherapy were encouraged to continue on study to receive erlotinib after progression. A total of 146 patients were enrolled. No significant differences in PFS or OS were found between treatment arms.
# Pretreatment serum or plasma samples from patients in the LCCC0512 trial were available for VeriStrat testing. 124 samples were received. Sixty four samples were classified as VeriStrat Good, 39 as VeriStrat Poor and 7 as Indeterminate (undefined/equivocal classification). Of the remaining samples 13 could not be processed due to hemolysis and data could not be collected from one sample. For 5 samples where VeriStrat testing was performed, the samples could not be matched to clinical data from the trial. This left 98 samples with VeriStrat classification of Good or Poor and clinical data for statistical analysis. The majority of the samples tested were plasma, but where plasma was not available for a few patients, serum samples were used. Of the samples on which VeriStrat testing yielded a result of Good or Poor only 5 were identified as serum.
# Survival analysis was carried out using SAS Enterprise Guide (SAS 9.2). Difference between groups was assessed using log-rank p values. Both univariate and multivariate hazard ratios were evaluated using Cox proportional hazard models. Kaplan-Meier plots and p values for contingency tables were generated using PRISM (GraphPad). For purposes of this disclosure, the data of interest pertain to the “gemcitabine” arm.
# ovarian cancer = assay: Ovarian cancer study, carboplatin and paclitaxel after surgery, outcome by VeriStrat group
# Procedure: The data shown in FIGS. 7A and 7B reflect VeriStrat testing on a subset of 96 patients from a larger study of about 160 patients. In this study, serum samples were taken from ovarian cancer patients before surgery and retrospectively analyzed with the VeriStrat test. After surgery, the patients were treated with carboplatin and paclitaxel.
# [2] = between VeriStrat groups, gemcitabine alone
compound,measurement,setting,value
CC(=O)O[C@@]12CO[C@@H]1C[C@H](O)[C@@]1(C)C(=O)[C@H](O)C3=C(C)[C@@H](OC(=O)[C@H](O)[C@@H](NC(=O)OC(C)(C)C)c4ccccc4)C[C@@](O)([C@@H](OC(=O)c4ccccc4)[C@H]21)C3(C)C [docetaxel],"hazard ratio, overall survival",NSCLC,1.03
Nc1ccn([C@@H]2O[C@H](CO)[C@@H](O)C2(F)F)c(=O)n1 [gemcitabine],median PFS,[1]; VeriStrat Good group,133 days
same,median OS,"[1]; VeriStrat Good group, gemcitabine alone",201 days
same,median PFS,[1]; VeriStrat Poor group,137 days
same,median OS,"[1]; VeriStrat Poor group, gemcitabine alone",197 days
same,"hazard ratio (HR), OS by VeriStrat group",[1]; [2],0.82
same,"hazard ratio (HR), PFS by VeriStrat group",[1]; [2],1.21
carboplatin and paclitaxel,median disease free survival time,ovarian cancer; VeriStrat Good patients,20 months
same,median overall survival time,ovarian cancer; VeriStrat Good patients,undefined
same,"Hazard Ratio, disease free survival","ovarian cancer; VeriStrat Good vs Poor, FIG. 7A",0.4906
same,"hazard ratio, overall survival","ovarian cancer; VeriStrat Good vs Poor, FIG. 7B",0.3061
same,median disease free survival time,ovarian cancer; VeriStrat Poor patients,11 months
same,median overall survival time,ovarian cancer; VeriStrat Poor patients,21 months

# From US20140200825A1, “Method for predicting whether a cancer patient will not benefit from platinum-based chemotherapy agents” (Biodesix, Inc., priority 2012, published 2014)
